Reference: patent US20260191835A1, “COMBINATIONS COMPRISING A MENIN-MLL INHIBITOR AND AT LEAST ONE OTHER THERAPEUTIC AGENT” (JANSSEN PHARMACEUTICA NV, priority 2022, published 2026)

System: MOLM-13 cells
Test: In vitro proliferation (Cell Titer Glo, 6 days) of Compound 51 in combination with gilteritinib, midostaurin, idarubicin or decitabine, MOLM-13
Format: cell-based, human
Design: key to maxR call (synergy/antagonism), combination with Gilteritinib on MOLM-13 cell proliferation / Synergy/antagonism call (maxR test), MOLM-13 Cell Proliferation: synergy is indicated by “**”; antagonism is indicated by “*”; no asterisk: absence of any asterisk indicates an additive effect
Experimental: 3) In Vitro Proliferation—Menin-MLL Inhibitor in Combination with FLT3 Inhibitor (Gilteritinib or Midostaurin), DNA Intercalating Agent (Idarubicin) or Hypomethylating Agent (Decitabine)
The effect of Compound 51 in combination with gilteritinib, midostaurin, idarubicin or decitabine was determined in proliferation assays.
AML cell lines MOLM-13, OCI-AML3 and MV4-11 were purchased from DSMZ. MOLM-13 were grown in RPMI medium supplemented with 10% Fetal Bovine Serum (FBS) and 1% penicillin/streptomycin. MV4-11 cells were grown in IMDM medium supplemented with 10% FBS and 1% penicillin/streptomycin. OCI-AML3 cells were cultured in 80-90% alpha-MEM (with or without ribo- and deoxyribonucleosides)+10-20% FBS. All cell lines were cultured at 37° C. in 5% CO2 atmosphere.
AML cell lines (10-20×10^3 cells/well) were seeded in 96-well plates and grown for 6 days in serum (10%)-containing medium in the presence or absence of inhibitors at the indicated concentrations. Proliferation was analyzed by means of a Cell Titer Glo assay using the […] (Promega, Madison, WI, USA), according to the manufacturer's instructions. Data are mean with standard deviation from two to four independent experiments in technical triplicates.
R-based Biochemically Intuitive Generalized Loewe (BIGL) model implemented with a highest single agent (HSA) null model. Specifically, the BIGL methodology was applied to calculate drug-drug interactions (Van der Borght, K., Tourny, A., Bagdziunas, R. et al. BIGL: Biochemically Intuitive Generalized Loewe null model for prediction of the expected combined effect compatible with partial agonism and antagonism. Sci Rep 7, 17935 (2017); Thas, O., Tourny, A., Verbist, B., Hawinkel, S., Nazarov, M., Mutambanengwe, K., & Bijnens, L. Statistical detection of synergy: New methods and a comparative study. Pharmaceutical Statistics (2021)).
Synergy matrix results of the BIGL analysis of the cell line data with HSA as mean model calculated on the basis of the cellular metabolic activity using Cell Titer-Glo assay. Bootstrap confidence intervals are indicated. Effect sizes and their confidence intervals are shown. […] No significant average effect if zero is included in the interval.

[1] = Compound 51 0.05 μm, Gilteritinib 0.01 μM
[2] = Compound 51 0.1 μm + Decitabine 0.015 μM
[3] = Compound 51 0.1 μm + Decitabine 0.15 μM
[4] = Compound 51 0.1 μm + Idarubicin 0.001 μM
[5] = Compound 51 0.1 μm + Midostaurin 0.006 μM
[6] = Compound 51 0.1 μm + Midostaurin 0.025 μM
[7] = Compound 51 0.1 μm, Gilteritinib 0.01 μM
[8] = Compound 51 1 μm + Decitabine 0.15 μM
[9] = Compound 51 1 μm + Idarubicin 0.001 μM
[10] = Compound 51 1 μm + Midostaurin 0.006 μM
[11] = Compound 51 1 μm + Midostaurin 0.025 μM
[12] = Compound 51 10 μm + Decitabine 0.015 μM
[13] = Compound 51 10 μm + Decitabine 0.15 μM
[14] = Compound 51 10 μm, Gilteritinib 0.01 μM
[15] = Compound 51 10 μm, Gilteritinib 0.05 μM

## CC(=O)N1CCC(CN2CC[C@@H](Cc3cn(-c4ccc(F)cc4C(=O)N(C)C(C)C)c4cncc(C)c34)C2)CC1 [Compound 51]
Compound 51 0.05 μm, Gilteritinib 0.005 μM
  Effect size (BIGL, HSA null model), combination with Gilteritinib on MOLM-13 cell proliferation: −0.14
[1]
  Effect size (BIGL, HSA null model), combination with Gilteritinib on MOLM-13 cell proliferation: −0.32
  maxR call (synergy/antagonism), combination with Gilteritinib on MOLM-13 cell proliferation: **
Compound 51 0.05 μm, Gilteritinib 0.05 μM
  Effect size (BIGL, HSA null model), combination with Gilteritinib on MOLM-13 cell proliferation: −0.22
Compound 51 0.05 μm, Gilteritinib 0.1 μM
  Effect size (BIGL, HSA null model), combination with Gilteritinib on MOLM-13 cell proliferation: −0.14
Compound 51 0.05 μm, Gilteritinib 1 μM
  Effect size (BIGL, HSA null model), combination with Gilteritinib on MOLM-13 cell proliferation: −0.01
Compound 51 0.1 μm + Decitabine 0.0015 μM
  Effect size (BIGL, HSA null model), MOLM-13 Cell Proliferation: −0.01
[2]
  Effect size (BIGL, HSA null model), MOLM-13 Cell Proliferation: −0.33
  Synergy/antagonism call (maxR test), MOLM-13 Cell Proliferation: **
[3]
  Effect size (BIGL, HSA null model), MOLM-13 Cell Proliferation: −0.35
  Synergy/antagonism call (maxR test), MOLM-13 Cell Proliferation: **
Compound 51 0.1 μm + Decitabine 1.5 μM
  Effect size (BIGL, HSA null model), MOLM-13 Cell Proliferation: −0.05
Compound 51 0.1 μm + Decitabine 3 μM
  Effect size (BIGL, HSA null model), MOLM-13 Cell Proliferation: −0.03
Compound 51 0.1 μm + Idarubicin 0.0005 μM
  Effect size (BIGL, HSA null model), MOLM-13 Cell Proliferation: −0.13
[4]
  Effect size (BIGL, HSA null model), MOLM-13 Cell Proliferation: −0.42
  Synergy/antagonism call (maxR test), MOLM-13 Cell Proliferation: **
Compound 51 0.1 μm + Idarubicin 0.0025 μM
  Effect size (BIGL, HSA null model), MOLM-13 Cell Proliferation: −0.23
Compound 51 0.1 μm + Idarubicin 0.005 μM
  Effect size (BIGL, HSA null model), MOLM-13 Cell Proliferation: −0.11
Compound 51 0.1 μm + Idarubicin 0.05 μM
  Effect size (BIGL, HSA null model), MOLM-13 Cell Proliferation: 0.02
Compound 51 0.1 μm + Idarubicin 0.5 μM
  Effect size (BIGL, HSA null model), MOLM-13 Cell Proliferation: 0.02
Compound 51 0.1 μm + Midostaurin 0.0012 μM
  Effect size (BIGL, HSA null model), MOLM-13 Cell Proliferation: −0.08
[5]
  Effect size (BIGL, HSA null model), MOLM-13 Cell Proliferation: −0.23
  Synergy/antagonism call (maxR test), MOLM-13 Cell Proliferation: **
[6]
  Effect size (BIGL, HSA null model), MOLM-13 Cell Proliferation: −0.17
  Synergy/antagonism call (maxR test), MOLM-13 Cell Proliferation: **
Compound 51 0.1 μm + Midostaurin 0.05 μM
  Effect size (BIGL, HSA null model), MOLM-13 Cell Proliferation: −0.08
Compound 51 0.1 μm + Midostaurin 0.1 μM
  Effect size (BIGL, HSA null model), MOLM-13 Cell Proliferation: −0.04
Compound 51 0.1 μm + Midostaurin 0.5 μM
  Effect size (BIGL, HSA null model), MOLM-13 Cell Proliferation: −0.02
Compound 51 0.1 μm, Gilteritinib 0.0005 μM
  Effect size (BIGL, HSA null model), combination with Gilteritinib on MOLM-13 cell proliferation: −0.03
Compound 51 0.1 μm, Gilteritinib 0.005 μM
  Effect size (BIGL, HSA null model), combination with Gilteritinib on MOLM-13 cell proliferation: −0.13
[7]
  Effect size (BIGL, HSA null model), combination with Gilteritinib on MOLM-13 cell proliferation: −0.3
  maxR call (synergy/antagonism), combination with Gilteritinib on MOLM-13 cell proliferation: **
Compound 51 0.1 μm, Gilteritinib 0.05 μM
  Effect size (BIGL, HSA null model), combination with Gilteritinib on MOLM-13 cell proliferation: −0.24
Compound 51 0.1 μm, Gilteritinib 0.1 μM
  Effect size (BIGL, HSA null model), combination with Gilteritinib on MOLM-13 cell proliferation: −0.14
Compound 51 0.1 μm, Gilteritinib 1 μM
  Effect size (BIGL, HSA null model), combination with Gilteritinib on MOLM-13 cell proliferation: −0.01
Compound 51 1 μm + Decitabine 0.0015 μM
  Effect size (BIGL, HSA null model), MOLM-13 Cell Proliferation: 0.03
Compound 51 1 μm + Decitabine 0.015 μM
  Effect size (BIGL, HSA null model), MOLM-13 Cell Proliferation: −0.1
[8]
  Effect size (BIGL, HSA null model), MOLM-13 Cell Proliferation: −0.38
  Synergy/antagonism call (maxR test), MOLM-13 Cell Proliferation: **
Compound 51 1 μm + Idarubicin 0.0005 μM
  Effect size (BIGL, HSA null model), MOLM-13 Cell Proliferation: −0.08
[9]
  Effect size (BIGL, HSA null model), MOLM-13 Cell Proliferation: −0.38
  Synergy/antagonism call (maxR test), MOLM-13 Cell Proliferation: **
Compound 51 1 μm + Idarubicin 0.0025 μM
  Effect size (BIGL, HSA null model), MOLM-13 Cell Proliferation: −0.24
Compound 51 1 μm + Idarubicin 0.005 μM
  Effect size (BIGL, HSA null model), MOLM-13 Cell Proliferation: −0.11
Compound 51 1 μm + Idarubicin 0.05 μM
  Effect size (BIGL, HSA null model), MOLM-13 Cell Proliferation: 0.02
Compound 51 1 μm + Idarubicin 0.5 μM
  Effect size (BIGL, HSA null model), MOLM-13 Cell Proliferation: 0.02
Compound 51 1 μm + Midostaurin 0.0012 μM
  Effect size (BIGL, HSA null model), MOLM-13 Cell Proliferation: −0.03
[10]
  Effect size (BIGL, HSA null model), MOLM-13 Cell Proliferation: −0.18
  Synergy/antagonism call (maxR test), MOLM-13 Cell Proliferation: **
[11]
  Effect size (BIGL, HSA null model), MOLM-13 Cell Proliferation: −0.19
  Synergy/antagonism call (maxR test), MOLM-13 Cell Proliferation: **
Compound 51 1 μm + Midostaurin 0.05 μM
  Effect size (BIGL, HSA null model), MOLM-13 Cell Proliferation: −0.08
Compound 51 1 μm + Midostaurin 0.1 μM
  Effect size (BIGL, HSA null model), MOLM-13 Cell Proliferation: −0.04
Compound 51 1 μm + Midostaurin 0.5 μM
  Effect size (BIGL, HSA null model), MOLM-13 Cell Proliferation: −0.02
Compound 51 1 μm, Gilteritinib 0.0005 μM
  Effect size (BIGL, HSA null model), combination with Gilteritinib on MOLM-13 cell proliferation: 0.03
Compound 51 1 μm, Gilteritinib 0.005 μM
  Effect size (BIGL, HSA null model), combination with Gilteritinib on MOLM-13 cell proliferation: −0.1
Compound 51 1 μm, Gilteritinib 0.01 μM
  Effect size (BIGL, HSA null model), combination with Gilteritinib on MOLM-13 cell proliferation: −0.22
Compound 51 1 μm, Gilteritinib 0.05 μM
  Effect size (BIGL, HSA null model), combination with Gilteritinib on MOLM-13 cell proliferation: −0.25
Compound 51 1 μm, Gilteritinib 0.1 μM
  Effect size (BIGL, HSA null model), combination with Gilteritinib on MOLM-13 cell proliferation: −0.14
Compound 51 1 μm, Gilteritinib 1 μM
  Effect size (BIGL, HSA null model), combination with Gilteritinib on MOLM-13 cell proliferation: −0.01
Compound 51 10 μm + Decitabine 0.0015 μM
  Effect size (BIGL, HSA null model), MOLM-13 Cell Proliferation: −0.06
[12]
  Effect size (BIGL, HSA null model), MOLM-13 Cell Proliferation: −0.16
  Synergy/antagonism call (maxR test), MOLM-13 Cell Proliferation: **
[13]
  Effect size (BIGL, HSA null model), MOLM-13 Cell Proliferation: −0.38
  Synergy/antagonism call (maxR test), MOLM-13 Cell Proliferation: **
Compound 51 10 μm + Decitabine 1.5 μM
  Effect size (BIGL, HSA null model), MOLM-13 Cell Proliferation: −0.05
Compound 51 10 μm + Decitabine 3 μM
  Effect size (BIGL, HSA null model), MOLM-13 Cell Proliferation: −0.03
Compound 51 10 μm, Gilteritinib 0.0005 μM
  Effect size (BIGL, HSA null model), combination with Gilteritinib on MOLM-13 cell proliferation: −0.05
Compound 51 10 μm, Gilteritinib 0.005 μM
  Effect size (BIGL, HSA null model), combination with Gilteritinib on MOLM-13 cell proliferation: −0.17
[14]
  Effect size (BIGL, HSA null model), combination with Gilteritinib on MOLM-13 cell proliferation: −0.26
  maxR call (synergy/antagonism), combination with Gilteritinib on MOLM-13 cell proliferation: **
[15]
  Effect size (BIGL, HSA null model), combination with Gilteritinib on MOLM-13 cell proliferation: −0.27
  maxR call (synergy/antagonism), combination with Gilteritinib on MOLM-13 cell proliferation: **
Compound 51 10 μm, Gilteritinib 0.1 μM
  Effect size (BIGL, HSA null model), combination with Gilteritinib on MOLM-13 cell proliferation: −0.14
Compound 51 10 μm, Gilteritinib 1 μM
  Effect size (BIGL, HSA null model), combination with Gilteritinib on MOLM-13 cell proliferation: −0.01
In combination with Midostaurin 6 to 25 nM, MOLM-13
  combination effect on proliferation at low doses of Midostaurin: synergized
In combination with decitabine, MOLM-13, 6-day CellTiter-Glo matrix
  combination effect on proliferation (cytotoxicity): synergistically cytotoxic
In combination with gilteritinib 500 pM, MOLM-13
  combination effect on proliferation at low doses of gilteritinib: synergistic effect
In combination with gilteritinib, MOLM-13, 6-day CellTiter-Glo matrix
  combination effect on proliferation (cytotoxicity): not antagonistically cytotoxic
In combination with idarubicin, MOLM-13, 6-day Cell Titer-Glo matrix
  combination effect on proliferation (cytotoxicity): synergistically cytotoxic
In combination with midostaurin, MOLM-13, 6-day CellTiter-Glo matrix
  combination effect on proliferation (cytotoxicity): not antagonistically cytotoxic
